Read-outs that look alike come from different tables or passages of the source.
What was measured:
IKH = type: cell-based, canine; conditions: for IC50: extracellular ion, read-out: IC50 for time-dependent IKH; for effect on IKH (in words): substance alone; for increase of IKH tail currents: following a pulse to −120 mV; for IKH tail current: following hyperpolarization to −120 mV; for IKH mean current density: at −100 mV; for IKH activation by carbachol after pertussis toxin pretreatment (in words): 1.5 mg l−1 PTX, 37° C., at least 9 h
Method: (§1) Adult mongrel dogs of either sex (weighing about 20-35 kg) were anaesthetized with pentobarbital (30 mg kg^−1 I.V.) and artificially ventilated with room air. Hearts and adjacent lung tissue were relatively quickly excised through a left lateral thoracotomy and immersed in oxygenated Tyrode solution (composition detailed hereinbelow) at room temperature. […] A left atrial (LA) preparation with the PVs intact was perfused via the left circumflex coronary artery, and subjected to either standard fine-tipped microelectrode recording of action potentials (APs) or cardiomyocyte isolation with collagenase-containing solutions, as previously described (Ehrlich et al. 2003). Six dogs were subjected to atrial tachycardia-induced remodeling induced by 1 week of atrial pacing at about 400 beats min^−1 after ablation of the AV node, as described in Li et al. 1999. Animal care and handling procedures followed the guidelines of the Canadian Council on Animal Care.
(§2) To isolate LA and PV cardiomyocytes, the proximal circumflex artery was cannulated and the distal ends of PV myocardial sleeves (approximately 1-1.5 cm from the PV-LA junction) were marked with silk thread prior to subsequent enzyme perfusion with collagenase (100 U ml^−1, Worthington, type II), in order to facilitate localization of PV sleeves after enzymatic digestion. […] All comparisons were based on PV and LA cardiomyocytes isolated from each dog on each experimental day. After isolation, cells were stored at 4° C. and studied on the same day. For standard microelectrode experiments, intact tissue preparations including the LA and adjacent PVs were mounted in a chamber and perfused via the circumflex artery with oxygenated Krebs solution at 36±0.5° C. (see for example Kneller et al. 2002).
(§3) Currents were recorded with the whole-cell patch-clamp technique at 36±0.5° C., as described in Yue et al. 1996. All junction potentials were zeroed prior to formation of gigaohm seals. […] Capacitance was assessed using 5 mV, 10 ms hyperpolarizing steps from a holding potential (HP) of −60 mV. […] Original recordings are shown in terms of current amplitude, but mean data are presented as current density (pA pF−1) to control for variability in cell size.
(§4) Currents were recorded with hyperpolarizing and depolarizing pulses (generally 4 s duration) from a HP of −40 mV to selected test potentials (TPs). Recordings were repeated 3 times, and mean values obtained. For the determination of reversal potentials, tail currents were recorded after 1.6 s pulses to −120 mV followed by 3.2 s depolarizations to TPs between −110 and +20. All voltage protocols were delivered at 0.1 Hz.
(§5) Tyrode solution contained (mM): NaCl 136, KCl 5.4, MgCl2 1, CaCl2 1, NaH2PO4 0.33, Hepes 5 and dextrose 10 (pH 7.35 with NaOH). The cell-storage solution contained (mM): KCl 20, KH2PO4 10, dextrose 10, mannitol 40, L-glutamic acid 70, β-OH-butyric acid 10, taurine 20, EGTA 10 and 0.1% bovine serum albumin (pH 7.3, KOH). Nifedipine (5 μM) was used to suppress L-type Ca^2+ current (ICa) in all experiments. 4-Aminopyridine (4-AP, 2 mM) was added to suppress transient outward current (Ito). […] Na+ current (INa) contamination was avoided by using a HP of −40 mV for recording of hyperpolarization-induced currents and by substitution of equimolar Tris-HCl for external NaCl for tail-current recordings.

[1] = system: instantaneous inward-rectifier current; assay: Whole-cell patch-clamp of instantaneous inward-rectifier current in canine cardiomyocytes; type: cell-based; conditions: at −120 mV, extracellular ion
Method: as §1
as §2, with “For standard microelectrode experiments, intact tissue preparations including the LA and adjacent PVs were mounted in a chamber and perfused via the circumflex artery with oxygenated Krebs solution at 36±0.5° C. (see for example Kneller et al. 2002).” left out
Currents were recorded with the whole-cell patch-clamp technique at 36±0.5° C., as described in Yue et al. 1996. […] Capacitance was assessed using 5 mV, 10 ms hyperpolarizing steps from a holding potential (HP) of −60 mV. […]
as §4, with “Recordings were repeated 3 times, and mean values obtained.” left out, “All voltage protocols were delivered at 0.1 Hz.” left out

holding current = assay: Holding current in whole-cell patch-clamp of cardiomyocytes; type: cell-based, canine
Method: as §3, §4
as §5, with “recordings. When different external K^+ concentrations were applied, the osmolarity was kept constant by proportionate reduction of NaCl content in the solution. The standard internal solution contained (mM): potassium aspartate 110, KCl 20, MgCl2 1, MgATP 5, GTP (lithium salt) 0.1, Hepes 10, sodium phosphocreatine 5 and EGTA 5.0 (pH 7.3 with KOH). In experiments with K+-free internal solution, potassium aspartate was replaced by equimolar caesium aspartate and KCl by CsCl and pH was set to 7.3 with CsOH. For standard-microelectrode experiments, a solution containing (mM): NaCl 120, KCl 4, KH2PO4 1.2, MgSO4 1.2, NaHCO3 25, CaCl2 1.25 and dextrose 5 (95% O2-5% CO2, pH 7.4) was used to perfuse the tissue.” for “recordings.”
Stock solutions of BaCl2 (1 M) and CsCl (1 M) were produced initially and used throughout the experiments. Stock solution of isoproterenol was prepared under protection from light on the day of experiments and freshly prepared ascorbic acid (100 μM) was added in order to prevent isoproterenol oxidization. Carbachol (1 μM) was dissolved in Tyrode solution, tertiapin-Q in 0.1% acetic acid. GTPS (0.1 mM) was used in place of GTP in internal solutions for some experiments. For experiments involving pertussis toxin (PTX, stock solution dissolved in distilled H2O) cells were incubated at 37° C. in 1.5 mg I-1 PTX for at least 9 h prior to experiments. Parallel controls were performed with cells from the same isolates incubated in the same fashion and the same solution, but without PTX. […] Unless otherwise specified, drugs were obtained from Sigma.

Molecule: [Ba+2].[Cl-].[Cl-] [Ba^2+, BaCl2]
- inhibition of IKH (in words) (IKH; 1 μM, most cells): inhibited IKH appreciably
- inhibition of IKH (in words) (IKH; 10 μM): full inhibition
- IC50 (IKH; at −120 mV): 2 ± 0.3 µM
- IC50 [1]: 76 ± 17.9 µM

Molecule: [Cl-].[Cs+] [Cs^+, CsCl]
- IC50 (IKH; at −120 mV): 184 ± 18.2 µM
- IC50 [1]: 139 ± 34.2 µM

Molecule: Nc1nc2c(ncn2[C@@H]2O[C@H](COP(=O)(O)OP(=O)(O)OP(O)(O)=S)[C@@H](O)[C@H]2O)c(=O)[nH]1 [GTPS]
- further IKH response to carbachol with GTPS in the pipette (in words) (IKH; GTPS 0.1 mM in place of GTP): fully prevented
- IKH current density (IKH; at −120 mV, GTPS in pipette, no cholinergic stimulation (regular GTP −3.8±0.6)): −8.2±0.8 pA pF^−1
- effect on IKH (in words) (IKH): increased

Molecule: C[N+](C)(C)CCOC(N)=O [carbachol]
- average increase of IKH (IKH; 1 μM carbachol, voltages between −120 and −90 mV, PV cells): 188±54%
- IKH current density (IKH; at −120 mV, 1 μM carbachol, GTP-containing pipettes (before −6.2±1.0)): −10.0±1.2 pA pF^−1
- IKH current density (IKH; at −120 mV, 1 μM carbachol, GTP-free pipettes (before −8.3±0.7)): −8.3±1.1 pA pF^−1
- IKH current density (IKH; at −120 mV, 1 μM carbachol, LA cells (baseline −1.9±0.4)): −4.9±1.1 pA pF^−1
- IKH current density (IKH; at −120 mV, 1 μM carbachol, PV cells (baseline −2.6±0.5)): −5.0±0.6 pA pF^−1
- IKH density (IKH; at −120 mV, carbachol, cells incubated without PTX at 37° C. >9 h (before −6.2±1.8)): −11.5±1.8 pA pF^−1
- IKH density (IKH; at −120 mV, carbachol, cells preincubated with PTX): −5.5±1.2 pA pF−1
- increase of IKH tail currents (IKH; carbachol, PTX-treated cells): 127±37%
- increase of IKH tail currents (IKH; carbachol, cells incubated without PTX): 538±170%
- IKH tail current (IKH; after carbachol, PTX-free conditions (before 2.1±0.7)): 8.4±1.6 pA pF^−1
- IKH tail current (IKH; after carbachol, PTX-preincubated cells): 3.4±0.9 pA pF^−1
- effect on IKH (in words) (IKH): increased

Molecule: CC(C)NCC(O)c1ccc(O)c(O)c1 (stereo not shown) [isoproterenol]
- time to steady-state effect on IKH (IKH; 1 μM isoproterenol, PV cell): ≤ 2 min
- IKH mean current density (IKH; 10 nM isoproterenol (control −0.9±0.1)): −1.2±0.1 pA pF^−1
- IKH mean current density (IKH; 100 nM isoproterenol (control −0.9±0.1)): −1.4±0.2 pA pF^−1
- IKH mean current density (IKH; 1000 nM isoproterenol (control −0.9±0.1)): −1.5±0.1 pA pF^−1
- mean end-pulse current (IKH; at −120 mV, 1 μM isoproterenol in the presence of 200 nM tertiapin-Q): 0.20±0.07 pA pF^−1
- effect on IKH (in words) (IKH): increased
- increase of holding current (holding current; 10 nM isoproterenol): 59±14%
- holding current (holding current; 10 nM isoproterenol (control 44±11)): 65±14 pA pF−1
- increase of holding current (holding current; 100 nM isoproterenol): 89±33%
- holding current (holding current; 100 nM isoproterenol (control 44±11)): 70±13 pA pF−1
- increase of holding current (holding current; 1000 nM isoproterenol): 144±37%
- holding current (holding current; 1000 nM isoproterenol (control 44±11)): 87±14 pA pF−1

Molecule: pertussis toxin
- IKH activation by carbachol after pertussis toxin pretreatment (in words) (IKH; 1 μM carbachol): prevented
- IKH activation by carbachol after pertussis toxin pretreatment (in words) (IKH; 1 μM carbachol, listed as PTX): attenuated
- IKH density (IKH; at −120 mV, cells preincubated with PTX, before carbachol): −6.4±0.8 pA pF^−1
- IKH tail current (IKH; PTX-preincubated cells, before carbachol): 1.8±0.6 pA pF^−1

From US20060094003A1, “Acetylcholine-dependent current as a novel ionic target for atrial fibrillation” (priority 2004, published 2006)
